# Data from ChEMBL document CHEMBL1201862, “PubChem BioAssay data set” (2004).
# Structures can show the parent of a compound that is named as a salt. Activity calls are given as the source filed them.
# What was measured:
# Protein skinhead-1 = target: T1, Protein skinhead-1 (Caenorhabditis elegans, UniProt P34707); type: functional
# T1 sequence (P34707 whole entry): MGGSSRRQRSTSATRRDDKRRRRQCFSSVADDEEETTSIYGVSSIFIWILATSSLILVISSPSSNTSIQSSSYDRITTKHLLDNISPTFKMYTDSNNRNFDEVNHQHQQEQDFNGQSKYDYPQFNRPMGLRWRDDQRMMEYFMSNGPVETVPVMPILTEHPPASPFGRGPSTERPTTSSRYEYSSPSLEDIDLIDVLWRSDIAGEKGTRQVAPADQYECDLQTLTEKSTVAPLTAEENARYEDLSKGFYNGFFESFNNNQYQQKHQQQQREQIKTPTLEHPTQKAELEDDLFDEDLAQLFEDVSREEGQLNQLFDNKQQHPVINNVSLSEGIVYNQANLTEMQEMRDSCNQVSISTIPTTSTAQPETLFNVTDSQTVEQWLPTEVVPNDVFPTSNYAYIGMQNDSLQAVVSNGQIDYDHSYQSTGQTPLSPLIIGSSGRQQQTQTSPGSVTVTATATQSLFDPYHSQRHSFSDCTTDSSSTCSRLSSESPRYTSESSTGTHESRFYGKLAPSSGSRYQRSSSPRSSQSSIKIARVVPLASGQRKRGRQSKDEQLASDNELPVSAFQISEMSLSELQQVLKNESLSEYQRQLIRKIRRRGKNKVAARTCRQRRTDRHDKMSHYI
# [1] = reduction of Shn3 3'UTR-driven luciferase in osteoblasts – cell-based, Clone20 osteoblasts, firefly luciferase, cherry-picked, dose response (AID 624132); type: functional;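 note: firefly luciferase luminescence from reporter carrying the Shn3 3'UTR in osteoblasts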
# [2] = loss of viability in HepG2 cells – cell-based, CellTiter-Glo, cherry-picked, cytotoxicity control for Shn3 inhibitor project, dose response (AID 624134); type: functional
# [3] = non-specific 3'UTR reporter inhibition in Clone20-Shn3RL – cell-based, Renilla luciferase, cherry-picked, counter-screen for Shn3 inhibitor project, dose response (AID 624133); type: functional
# Paired box protein Pax-8 = Paired box protein Pax-8 (Homo sapiens, UniProt Q06710); experiment: PAX8 transcriptional activity inhibition in RMG-I – RMG-I cells, luciferase, cherry-pick, dose response (AID 687027); type: functional, cell-based;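 note: luciferase reporter driven by Pax8 target thyroperoxidase promoter measured by SteadyGlo luminescence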
# Paired box protein Pax-8, sequence (Q06710 whole entry): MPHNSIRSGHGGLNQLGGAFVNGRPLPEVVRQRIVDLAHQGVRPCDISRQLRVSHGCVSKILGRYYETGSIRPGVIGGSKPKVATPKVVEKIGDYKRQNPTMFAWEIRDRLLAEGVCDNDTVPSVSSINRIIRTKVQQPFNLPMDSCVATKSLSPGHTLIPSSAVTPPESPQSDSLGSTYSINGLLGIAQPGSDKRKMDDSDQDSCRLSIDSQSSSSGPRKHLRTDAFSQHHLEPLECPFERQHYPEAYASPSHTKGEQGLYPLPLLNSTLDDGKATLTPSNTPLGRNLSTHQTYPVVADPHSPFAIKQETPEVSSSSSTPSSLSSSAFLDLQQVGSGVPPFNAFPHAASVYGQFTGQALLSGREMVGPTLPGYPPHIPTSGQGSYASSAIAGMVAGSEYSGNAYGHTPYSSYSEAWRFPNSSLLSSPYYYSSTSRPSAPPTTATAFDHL
# [4] = target: FAD-linked sulfhydryl oxidase ALR (Homo sapiens, UniProt P55789); experiment: ALR-catalysed DTT oxidation blockers – biochemical, H2O2 detection, luminescence, cherry-pick, dose response (AID 493248)
# FAD-linked sulfhydryl oxidase ALR, sequence (P55789 whole entry, the tested form may be a part): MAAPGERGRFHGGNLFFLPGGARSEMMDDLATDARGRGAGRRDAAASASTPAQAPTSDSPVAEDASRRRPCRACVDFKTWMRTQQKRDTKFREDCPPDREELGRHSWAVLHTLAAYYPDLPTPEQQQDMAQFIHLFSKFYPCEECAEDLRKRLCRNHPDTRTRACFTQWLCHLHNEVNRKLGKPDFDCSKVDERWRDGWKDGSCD
# [5] = target: T2, Polyadenylate-binding protein 1 (Homo sapiens, UniProt P11940); experiment: MLLE domain peptide-binding blockers, IC50 – biochemical, fluorescence polarization, FITC-PAM2 peptide, dose response (AID 602259); type: functional; conditions: read-out: IC50_Mean
# T2 sequence (P11940 whole entry, the tested form may be a part): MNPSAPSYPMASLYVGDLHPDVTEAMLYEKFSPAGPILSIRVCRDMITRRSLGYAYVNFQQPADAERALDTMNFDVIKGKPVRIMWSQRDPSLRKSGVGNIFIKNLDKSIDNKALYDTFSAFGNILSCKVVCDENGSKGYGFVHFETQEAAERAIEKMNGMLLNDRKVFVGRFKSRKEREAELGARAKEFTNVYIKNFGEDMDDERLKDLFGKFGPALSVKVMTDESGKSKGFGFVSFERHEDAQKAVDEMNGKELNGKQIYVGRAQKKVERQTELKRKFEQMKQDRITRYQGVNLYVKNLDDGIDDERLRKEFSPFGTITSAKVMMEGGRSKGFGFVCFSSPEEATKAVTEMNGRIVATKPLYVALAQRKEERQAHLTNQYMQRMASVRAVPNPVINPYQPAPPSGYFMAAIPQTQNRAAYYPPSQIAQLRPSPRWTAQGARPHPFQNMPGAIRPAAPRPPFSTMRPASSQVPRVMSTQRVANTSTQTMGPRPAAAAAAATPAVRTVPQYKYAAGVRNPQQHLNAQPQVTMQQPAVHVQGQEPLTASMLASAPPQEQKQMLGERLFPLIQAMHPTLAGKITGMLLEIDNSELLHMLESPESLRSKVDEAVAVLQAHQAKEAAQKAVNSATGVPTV
# [6] = target: T2, Polyadenylate-binding protein 1; experiment: MLLE binding blockers, Cy5 peptide tracer – biochemical, fluorescence polarization, Cy5-PAM2 peptide, secondary, miRNA deadenylation inhibitor project, dose response (AID 602260); type: functional; conditions: read-out: IC50_Mean
# Genome polyprotein = Genome polyprotein (dengue virus type 2, UniProt P29990); experiment: flavivirus cap methylation enzyme inhibition – biochemical, confirmation dose response, primary screen (AID 588689); type: functional
# Genome polyprotein, sequence (P29990 2492-3391 limits assumed): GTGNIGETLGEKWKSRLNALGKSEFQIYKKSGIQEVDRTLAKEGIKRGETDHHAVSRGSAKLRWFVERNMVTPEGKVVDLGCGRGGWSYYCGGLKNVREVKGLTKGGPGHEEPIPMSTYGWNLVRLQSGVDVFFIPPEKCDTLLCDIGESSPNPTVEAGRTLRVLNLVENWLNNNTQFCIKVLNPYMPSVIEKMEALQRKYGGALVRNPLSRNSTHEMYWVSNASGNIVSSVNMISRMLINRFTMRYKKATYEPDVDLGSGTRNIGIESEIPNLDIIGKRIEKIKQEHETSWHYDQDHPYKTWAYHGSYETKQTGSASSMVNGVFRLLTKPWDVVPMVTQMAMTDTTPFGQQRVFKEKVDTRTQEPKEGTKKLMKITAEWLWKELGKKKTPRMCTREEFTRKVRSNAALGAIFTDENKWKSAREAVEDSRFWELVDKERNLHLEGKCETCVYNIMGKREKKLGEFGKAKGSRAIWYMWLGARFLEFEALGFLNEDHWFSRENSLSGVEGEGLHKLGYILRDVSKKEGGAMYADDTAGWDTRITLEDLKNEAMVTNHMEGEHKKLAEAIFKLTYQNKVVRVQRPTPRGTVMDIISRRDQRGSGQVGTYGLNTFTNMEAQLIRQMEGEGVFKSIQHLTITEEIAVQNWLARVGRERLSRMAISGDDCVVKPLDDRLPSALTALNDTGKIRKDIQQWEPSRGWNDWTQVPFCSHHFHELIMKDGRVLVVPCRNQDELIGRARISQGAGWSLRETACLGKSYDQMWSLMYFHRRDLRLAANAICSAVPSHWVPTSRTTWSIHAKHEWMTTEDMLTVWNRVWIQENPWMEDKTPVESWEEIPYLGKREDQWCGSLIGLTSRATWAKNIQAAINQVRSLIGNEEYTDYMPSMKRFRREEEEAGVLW
# Cytochrome P450 2C19 = Cytochrome P450 2C19 (Homo sapiens, UniProt P33261); experiment: Cytochrome panel assay with activity outcomes. Panel member name: p450-cyp2c19 Compounds with AC50 equal or less than 10 uM are considered active; type: functional
# Cytochrome P450 2C19, sequence (P33261 whole entry): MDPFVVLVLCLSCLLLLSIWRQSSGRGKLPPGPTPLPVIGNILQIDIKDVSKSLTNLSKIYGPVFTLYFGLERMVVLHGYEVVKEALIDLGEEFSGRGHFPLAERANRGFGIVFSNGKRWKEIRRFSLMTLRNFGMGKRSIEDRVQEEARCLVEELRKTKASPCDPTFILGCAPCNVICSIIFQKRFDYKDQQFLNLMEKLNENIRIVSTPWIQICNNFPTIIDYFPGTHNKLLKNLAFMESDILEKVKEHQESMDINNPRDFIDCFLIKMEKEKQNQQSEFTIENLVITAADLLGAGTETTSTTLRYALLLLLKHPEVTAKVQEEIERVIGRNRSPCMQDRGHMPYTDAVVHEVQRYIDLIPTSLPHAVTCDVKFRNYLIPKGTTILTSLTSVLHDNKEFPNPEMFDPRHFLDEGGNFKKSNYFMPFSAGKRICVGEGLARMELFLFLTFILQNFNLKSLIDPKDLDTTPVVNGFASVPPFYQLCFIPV
# Cytochrome P450 2C9 = Cytochrome P450 2C9 (Homo sapiens, UniProt P11712)
# Cytochrome P450 2C9, sequence (P11712 whole entry): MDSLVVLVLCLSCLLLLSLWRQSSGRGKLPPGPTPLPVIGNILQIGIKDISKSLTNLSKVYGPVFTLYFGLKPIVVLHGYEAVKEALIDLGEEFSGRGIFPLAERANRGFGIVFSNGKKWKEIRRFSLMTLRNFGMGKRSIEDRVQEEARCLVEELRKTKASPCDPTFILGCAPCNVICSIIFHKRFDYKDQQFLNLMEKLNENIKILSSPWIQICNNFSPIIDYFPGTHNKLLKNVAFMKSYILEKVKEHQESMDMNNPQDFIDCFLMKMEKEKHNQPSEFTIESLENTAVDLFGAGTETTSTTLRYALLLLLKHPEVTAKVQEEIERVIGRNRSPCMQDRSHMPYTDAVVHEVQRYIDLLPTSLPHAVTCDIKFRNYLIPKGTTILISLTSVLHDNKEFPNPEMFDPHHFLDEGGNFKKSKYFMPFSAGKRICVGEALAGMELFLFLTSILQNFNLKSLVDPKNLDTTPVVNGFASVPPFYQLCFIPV
# [7] = viability of uninfected HEp-2 cells – cell-based, HTS, cytotoxicity control for RSV inhibitor project, dose response (AID 2410); type: functional; conditions: human respiratory syncytial virus
smiles,measurement,setting,value
O=C(Nc1ccc(Cl)cc1)Nc1ccc(Br)cn1,IC50,Protein skinhead-1,> 100 µM (inactive)
O=C(CN1C2CCC1CC(NC(=O)C1CC1)C2)NCc1ccccc1 (stereo not drawn),IC50,Protein skinhead-1,> 100 µM (inactive)
Cc1cc(C)c(S(=O)(=O)N2Cc3ccccc3-n3nncc3C2)c(C)c1,AC50,[1],4.36 µM (active)
same,AC50,[2],49.7 µM (active)
same,AC50,[3],5.53 µM (active)
Oc1cccc2cc(Nc3ccccc3)cnc12,AC50,[1],0.644 µM (active)
same,AC50,[2],4 µM (active)
same,AC50,[3],1.4 µM (active)
same,AC50,Paired box protein Pax-8,1.37 µM (active)
O=C(NC1CCCCCC1)C1CCCN1S(=O)(=O)c1cccc2cccnc12 (stereo not drawn),AC50,[4],10.7 µM (active)
Cc1cc(SCNC(=O)c2ccccc2)nc(C(C)C)n1,IC50,[5],> 66 µM (inactive)
same,IC50,[6],> 66 µM (inactive)
COc1ccc(C(C2C(=O)CC(C)(C)CC2=O)C2C(=O)CC(C)(C)CC2=O)cc1COCC(F)(F)F,IC50,Genome polyprotein,27.7 µM (active)
COc1cc(/C=N/Nc2ccccc2)ccc1O,AC50,[4],0.887 µM (active)
CCOC(=O)C1CCCN(C(=O)c2ccc(-c3ccc([N+](=O)[O-])cc3)o2)C1 (stereo not drawn),IC50,[5],> 66 µM (inactive)
same,IC50,[6],> 66 µM (inactive)
O=S(=O)(NC(=S)c1ccccc1)c1ccccc1,IC50,[5],> 66 µM (inactive)
same,IC50,[6],> 66 µM (inactive)
O=C1NC(=O)C(=Cc2cccc(OCCOc3ccccc3)c2)C(=O)N1,IC50,Genome polyprotein,51.2 µM (active)
O=C(O)[C@H]1C[C@]2(C[C@H](C(=O)O)C2)C1 (stereo partly drawn),AC50,Cytochrome P450 2C19,inconclusive
O=C(NCc1ccc(F)c(F)c1)c1ccc(-c2ccc(F)c(F)c2)c2ccoc12,IC50,Protein skinhead-1,< 3.13 µM (active)
CCOP(=O)(CN(CC)CCNP(=O)(OCC)OCC)OCC,AC50,Cytochrome P450 2C9,0.126 µM (inconclusive)
same,AC50,Cytochrome P450 2C19; read-out: AC50,39.8 µM (inconclusive)
O=C(NC(=S)Nc1ccc2c(c1)OCCO2)c1cccc(Br)c1,IC50,[5],> 66 µM (inactive)
same,CC50,[7],34.8 µM (active)
same,IC50,[6],> 66 µM (inactive)
CN(C)CCCO[C@@H]1[C@H]2OC(C)(C)O[C@H]2O[C@@H]1[C@H](O)CO [AMIPRILOSE HYDROCHLORIDE],IC50,Protein skinhead-1,> 100 µM (inactive)
CCc1ccc(NCc2nc(-c3ccccc3)no2)cc1,IC50,Protein skinhead-1,> 100 µM (inactive)
